What was measured:
Assay type in all cases: physicochemical
[1] = Known multiple solid forms; conditions: comparison table, Example 7
[2] = Hygroscopicity (moisture gain at relative humidity); parameters: Hygroscopy @ 85% RH: unit not given here; conditions: for moisture gain: at 85% relative humidity (RH); for Hygroscopy @ 85% RH: comparison table, Example 7
[3] = Loss on drying / initial water content; parameters: Initial water content: unit not given here; conditions: for Initial water content: comparison table, Example 7
[4] = Decomposition temperature; parameters: unit not given here; conditions: comparison table, Example 7
[5] = Stability in buffer solutions and in solid state

SMILES	Known Multiple forms [1]	hygroscopicity (in words) [2]	moisture gain [2]	Hygroscopy @ 85% RH [2]	Loss on drying (LOD) of a sample [3]	Initial water content [3]	Decomposition temperature [4]	solid-state stability [5]	stability in buffer solutions ([5]; many buffer solutions, various pH values)
Cc1ccc(-c2ccc(O[C@H]3CN4CCC3CC4)cn2)cc1.O=P(O)(O)O [Form A of the mono-phosphate salt, mono-phosphate salt of (R)-3-(6-(4-methylphenyl)-pyridin-3-yloxy)-1-aza-bicyclo[2.2.2]octane]	Yes	slightly hygroscopic	0.2%	0.2	about 0.5%	~0.5	222	–	–
Cc1ccc(-c2ccc(O[C@H]3CN4CCC3CC4)cn2)cc1.O=C(O)CCC(=O)O [Form A of the mono-succinate salt, mono-succinate salt of (R)-3-(6-(4-methylphenyl)-pyridin-3-yloxy)-1-aza-bicyclo[2.2.2]octane]	Yes	–	0.3%	0.3	about 4.5%	~4.5	222	–	–
Cc1ccc(-c2ccc(O[C@H]3CN4CCC3CC4)cn2)cc1.Cl [mono-hydrochloride salt, mono-hydrochloride salt of (R)-3-(6-(4-methylphenyl)-pyridin-3-yloxy)-1-aza-bicyclo[2.2.2]octane]	Yes	hygroscopic	about 5%	~5	about 5%	~5	262	–	–
Cc1ccc(-c2ccc(O[C@H]3CN4CCC3CC4)cn2)cc1.O=C(O)/C=C\C(=O)O [mono-maleate salt, mono-maleate salt of (R)-3-(6-(4-methylphenyl)-pyridin-3-yloxy)-1-aza-bicyclo[2.2.2]octane]	No	slightly hygroscopic	0.3%	0.3	< 0.03%	<0.1	207	good	good stability
Cc1ccc(-c2ccc(O[C@H]3CN4CCC3CC4)cn2)cc1.O=C(O)CC(=O)O [mono-malonate salt, mono-malonate salt of (R)-3-(6-(4-methylphenyl)-pyridin-3-yloxy)-1-aza-bicyclo[2.2.2]octane]	No	slightly hygroscopic	1.3%	1.3	0%	~0	148	–	–
